{
  "source": "patent US12582657B2",
  "about": "“Combination therapy including a KRAS G12C inhibitor and one or more additional pharmaceutically active agents for the treatment of cancers” (Amgen Inc., priority 2018, dated 2026)",
  "key": {"[1]": {"tested_on": "ERK1/2 phosphorylation in A549 cells", "experiment": "Basal ERK1/2 phosphorylation assay (MSD)", "type": "cell-based", "settings": "Homo sapiens; A549, lung, KRAS p.G12S homozygous; 2-hour treatment", "procedure": "(§1) For cellular assays, 2.5E+04 cells were seeded per well in 96-well plates and incubated at 37° C., 5% CO2, o/n. The following day, 3-fold serially-diluted compound or DMSO was added to the cells, and the plates were incubated at 37° C., 5% CO2 for 2 hours. […] Signal intensity corresponded with phospho-ERK1/2 levels and was normalized DMSO control."}, "[2]": {"tested_on": "ERK1/2 phosphorylation in NCI-H1355 cells", "experiment": "Basal ERK1/2 phosphorylation assay (MSD)", "type": "cell-based", "settings": "Homo sapiens; NCI-H1355, lung, KRAS p.G13C heterozygous; 2-hour treatment", "procedure": "as §1"}, "[3]": {"tested_on": "ERK1/2 phosphorylation in NCI-H358 cells", "experiment": "Basal ERK1/2 phosphorylation assay (MSD)", "type": "cell-based", "settings": "Homo sapiens", "procedure": "as §1"}, "[4]": {"tested_on": "ERK1/2 phosphorylation in LS 174T cells", "experiment": "Basal ERK1/2 phosphorylation assay (MSD)", "type": "cell-based", "settings": "Homo sapiens, LS174T, colon, KRAS p.G12D heterozygous, 2-hour treatment", "procedure": "as §1"}, "[5]": {"tested_on": "ERK1/2 phosphorylation in COLO-205 cells", "experiment": "Basal ERK1/2 phosphorylation assay (MSD)", "type": "cell-based", "settings": "Homo sapiens; COLO-205, colon, KRAS WT BRAF p.V600E; 2-hour treatment", "procedure": "as §1"}, "[6]": {"tested_on": "ERK1/2 phosphorylation in UM-UC-3 cells", "experiment": "Basal ERK1/2 phosphorylation assay (MSD)", "type": "cell-based", "settings": "Homo sapiens, UMUC3; UM-UC-3, bladder, KRAS p.G12C homozygous; 2-hour treatment", "procedure": "as §1"}, "[7]": {"tested_on": "ERK1/2 phosphorylation in SW837 cells", "experiment": "Basal ERK1/2 phosphorylation assay (MSD)", "type": "cell-based", "settings": "Homo sapiens; SW837, colon, KRAS p.G12C heterozygous; 2-hour treatment", "procedure": "as §1"}, "[8]": {"tested_on": "ERK1/2 phosphorylation in MIA PaCa-2 cells", "experiment": "Basal ERK1/2 phosphorylation assay (MSD)", "type": "cell-based", "settings": "Homo sapiens, 2-hour treatment", "procedure": "as §1"}, "[9]": {"tested_on": "ERK1/2 phosphorylation in A-427 cells", "experiment": "Basal ERK1/2 phosphorylation assay (MSD)", "type": "cell-based", "settings": "Homo sapiens; A-427, lung, KRAS p.G12D heterozygous; 2-hour treatment", "procedure": "as §1"}, "[10]": {"tested_on": "ERK1/2 phosphorylation in SW1463 cells", "experiment": "Basal ERK1/2 phosphorylation assay (MSD)", "type": "cell-based", "settings": "Homo sapiens; SW1463, colon, KRAS p.G12C homozygous; 2-hour treatment", "procedure": "as §1"}, "[11]": {"tested_on": "ERK1/2 phosphorylation in AsPC-1 cells", "experiment": "Basal ERK1/2 phosphorylation assay (MSD)", "type": "cell-based", "settings": "Homo sapiens, ASPC1; AsPC-1, pancreas, KRAS p.G12D homozygous; 2-hour treatment", "procedure": "as §1"}, "[12]": {"tested_on": "ERK1/2 phosphorylation in NCI-H1373 cells", "experiment": "Basal ERK1/2 phosphorylation assay (MSD)", "type": "cell-based", "settings": "Homo sapiens; NCI-H1373, lung, KRAS p.G12C homozygous; 2-hour treatment", "procedure": "as §1"}, "[13]": {"tested_on": "ERK1/2 phosphorylation in KM12 cells", "experiment": "Basal ERK1/2 phosphorylation assay (MSD)", "type": "cell-based", "settings": "Homo sapiens; KM12, colon, KRAS WT TPM3-NTRK fusion; 2-hour treatment; read-out: Basal p-ERK1/2 IC50", "procedure": "as §1"}, "[14]": {"tested_on": "ERK1/2 phosphorylation in NCI-H1322 cells", "experiment": "Basal ERK1/2 phosphorylation assay (MSD)", "type": "cell-based", "settings": "Homo sapiens, 2 h, read-out: Basal p-ERK1/2 IC50", "procedure": "as §1"}, "[15]": {"tested_on": "ERK1/2 phosphorylation in SW480 cells", "experiment": "Basal ERK1/2 phosphorylation assay (MSD)", "type": "cell-based", "settings": "Homo sapiens; SW480, colon, KRAS p.G12V homozygous; 2-hour treatment", "procedure": "as §1"}, "[16]": {"tested_on": "ERK1/2 phosphorylation in HCC-827 cells", "experiment": "Basal ERK1/2 phosphorylation assay (MSD)", "type": "cell-based", "settings": "Homo sapiens, HCC827; HCC-827, lung, KRAS WT EGFR p.E746_A750del; 2-hour treatment", "procedure": "as §1"}, "[17]": {"tested_on": "ERK1/2 phosphorylation in NCI-H2030 cells", "experiment": "Basal ERK1/2 phosphorylation assay (MSD)", "type": "cell-based", "settings": "Homo sapiens; NCI-H2030, lung, KRAS p.G12C homozygous; 2-hour treatment", "procedure": "as §1"}, "[18]": {"tested_on": "ERK1/2 phosphorylation in Calu-1 cells", "experiment": "Basal ERK1/2 phosphorylation assay (MSD)", "type": "cell-based", "settings": "Homo sapiens; Calu-1, lung, KRAS p.G12C heterozygous; 2-hour treatment", "procedure": "as §1"}, "[19]": {"tested_on": "ERK1/2 phosphorylation in NCI-H1792 cells", "experiment": "Basal ERK1/2 phosphorylation assay (MSD)", "type": "cell-based", "settings": "Homo sapiens; NCI-H1792, lung, KRAS p.G12C heterozygous; 2-hour treatment", "procedure": "as §1"}, "[20]": {"tested_on": "ERK1/2 phosphorylation in NCI-H2122 cells", "experiment": "Basal ERK1/2 phosphorylation assay (MSD)", "type": "cell-based", "settings": "Homo sapiens; NCI-H2122, lung, KRAS p.G12C homozygous; 2-hour treatment", "procedure": "as §1"}, "[21]": {"tested_on": "ERK1/2 phosphorylation in SW1573 cells", "experiment": "Basal ERK1/2 phosphorylation assay (MSD)", "type": "cell-based", "settings": "Homo sapiens; SW1573, lung, KRAS p.G12C homozygous; 2-hour treatment", "procedure": "as §1"}, "[22]": {"tested_on": "ERK1/2 phosphorylation in NCI-H23 cells", "experiment": "Basal ERK1/2 phosphorylation assay (MSD)", "type": "cell-based", "settings": "Homo sapiens; NCI-H23, lung, KRAS p.G12C heterozygous; 2-hour treatment", "procedure": "as §1"}, "[23]": {"tested_on": "KRASp.G12V (SW480-1AC) tumor xenografts", "experiment": "Tumor xenograft efficacy study", "type": "in vivo, mouse"}, "[24]": {"tested_on": "ERK1/2 phosphorylation in MIA PaCa-2 T2 tumors", "experiment": "Tumor pharmacodynamic assay (p-ERK, MSD immunoassay)", "type": "in vivo, mouse"}},
  "note": "Where two headings read alike, the source gives them in different places.",
  "data": [
    {"smiles": "C=CC(=O)N1CCN(c2nc(=O)n(-c3c(C)ccnc3C(C)C)c3nc(-c4c(O)cccc4F)c(F)cc23)[C@@H](C)C1", "note": "(atropisomer, axis not shown) [AMG 510, 6-fluoro-7-(2-fluoro-6-hydroxyphenyl)-1-(4-methyl-2-(2-propanyl)-3-pyridinyl)-4-((2S)-2-methyl-4-(2-propenoyl)-1-piperazinyl)pyrido[2,3-d]pyrimidin-2(1H)-one]", "values": [
      {"measurement": "IC50", "setting": "[1]", "result": "> 10000", "unit": "nM"},
      {"measurement": "IC50", "setting": "[2]", "result": "> 10000", "unit": "nM"},
      {"measurement": "IC50", "setting": "[3]; NCI-H358, 2 h, read-out: p-ERK IC50", "result": "~20", "unit": "nM"},
      {"measurement": "IC50", "setting": "[3]; NCI-H358, lung, KRAS p.G12C heterozygous, 2-hour treatment, read-out: Basal p-ERK1/2 IC50", "result": "35 ± 3", "unit": "nM"},
      {"measurement": "IC50", "setting": "[4]", "result": "> 10000", "unit": "nM"},
      {"measurement": "IC50", "setting": "[5]", "result": "> 10000", "unit": "nM"},
      {"measurement": "IC50", "setting": "[6]", "result": "29 ± 16", "unit": "nM"},
      {"measurement": "IC50", "setting": "[7]", "result": "18 ± 2", "unit": "nM"},
      {"measurement": "IC50", "setting": "[8]; second of two KRASp.G12C cell lines (FIG. 40E: MIA PaCa-2), read-out: p-ERK IC50", "result": "~30", "unit": "nM"},
      {"measurement": "IC50", "setting": "[8]; MIA PaCa-2, pancreas, KRAS p.G12C homozygous, read-out: Basal p-ERK1/2 IC50", "result": "36 ± 2", "unit": "nM"},
      {"measurement": "IC50", "setting": "[9]", "result": "> 10000", "unit": "nM"},
      {"measurement": "IC50", "setting": "[10]", "result": "33 ± 4", "unit": "nM"},
      {"measurement": "IC50", "setting": "[11]", "result": "> 10000", "unit": "nM"},
      {"measurement": "IC50", "setting": "[12]", "result": "10 ± 0.1", "unit": "nM"},
      {"measurement": "IC50", "setting": "[13]", "result": "> 10000", "unit": "nM"},
      {"measurement": "IC50", "setting": "[14]", "result": "> 10000", "unit": "nM"},
      {"measurement": "IC50", "setting": "[15]", "result": "> 10000", "unit": "nM"},
      {"measurement": "IC50", "setting": "[16]", "result": "> 10000", "unit": "nM"},
      {"measurement": "IC50", "setting": "[17]", "result": "40 ± 20", "unit": "nM"},
      {"measurement": "IC50", "setting": "[18]", "result": "13 ± 4", "unit": "nM"},
      {"measurement": "IC50", "setting": "[19]", "result": "45 ± 23", "unit": "nM"},
      {"measurement": "IC50", "setting": "[20]", "result": "123 ± 6", "unit": "nM"},
      {"measurement": "IC50", "setting": "[21]", "result": "27 ± 1", "unit": "nM"},
      {"measurement": "IC50", "setting": "[22]", "result": "90 ± 17", "unit": "nM"},
      {"measurement": "tumor growth", "setting": "[23]", "result": "no effect"},
      {"measurement": "inhibition at 100 mg/kg", "setting": "[24]; Mus musculus, MIA PaCa-2 T2, 100 mg/kg oral single dose, 2 hours post-treatment, read-out: inhibition of p-ERK, reduction compared to control", "result": 69, "unit": "%"},
      {"measurement": "time of maximal inhibition of p-ERK post-treatment", "setting": "[24]; single dose 10 mg/kg", "result": "2 to 4", "unit": "h"}
    ]}
  ]
}
